Literature values as cited in patent publication US6858744B2, “Dihydoxyhexanoic acid derivatives, their intermediates, and methods of making” (Pfizer Inc., priority 2002, dated 2005).

In the case of `O=C(O)C(F)(F)F` [trifluoro-acetic acid], the pKa is given as 0.3.
